From patent US20240343722A1 (VIFOR (INTERNATIONAL) AG, priority 2021, published 2024)

Target: T1, ferroportin (Fpn) (Mus musculus, UniProt Q9JHI9)
T1 construct: endogenous in cells; host or cells: J774 mouse macrophage cell line, induced with Fe(III)NTA
T1 sequence (Q9JHI9 1-570): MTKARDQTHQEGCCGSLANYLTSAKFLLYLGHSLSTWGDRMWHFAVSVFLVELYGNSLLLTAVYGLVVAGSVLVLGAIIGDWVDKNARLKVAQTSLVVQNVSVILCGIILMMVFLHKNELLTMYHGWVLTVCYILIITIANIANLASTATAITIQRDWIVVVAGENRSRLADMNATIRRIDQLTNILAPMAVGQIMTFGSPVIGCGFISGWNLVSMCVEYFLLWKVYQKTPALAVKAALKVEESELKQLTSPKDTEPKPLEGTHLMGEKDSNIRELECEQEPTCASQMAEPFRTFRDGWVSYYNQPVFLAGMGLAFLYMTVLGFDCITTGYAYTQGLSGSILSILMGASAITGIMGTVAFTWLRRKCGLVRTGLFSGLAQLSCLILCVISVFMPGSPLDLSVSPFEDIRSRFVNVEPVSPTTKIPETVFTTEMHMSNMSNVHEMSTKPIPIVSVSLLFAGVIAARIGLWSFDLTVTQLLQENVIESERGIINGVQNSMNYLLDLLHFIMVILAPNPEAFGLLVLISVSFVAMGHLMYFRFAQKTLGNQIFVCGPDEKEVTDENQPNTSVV
Assay: Hepcidin Internalization Assay (J774)
Format: cell-based
Conditions: Average (AVE) IC50 of multiple measurements; inhibition of TMR-hepcidin (25 nM) internalization into J774 cells
Description: This cellular assay allows quantification of the binding of hepcidin to ferroportin (Fpn) through microscopic detection of internalization of a fluorescently labeled hepcidin into J774 cells. […] Binding of hepcidin to Fpn triggers internalization and degradation of both hepcidin and Fpn. […] Therefore, microscopic detection of cell-associated TMR fluorescence is a measure of hepcidin binding to Fpn and internalization of hepcidin and Fpn. If TMR-hepcidin is prevented from binding to Fpn, cellular TMR fluorescence remains low (Durrenberger et al, 2013). The effect of small molecular weight Fpn inhibitor compounds in this assay was evaluated in vitro as described below. […] After removal of the paraformaldehyde solution, cells were washed 3 times with PBS leaving 100 μl per well and the plates were sealed with foil plate seal. TMR (530-550 nm excitation/575-625 nm emission/400 ms exposure time) and Hoechst 33342 (360-370 nm excitation/420-460 nm emission /10 ms exposure time) fluorescence images were acquired using a […] imager (Olympus) with a 20× high NA objective. […] The acquired image data was analysed with the […] analysis software. […] IC50 values were calculated with the Sum(Mean) raw data using “log(inhibitor) vs. response” curve fitting of Prism 5 software (GraphPad Software Inc., version 5.02). For each data set the fit of the “log(inhibitor) vs. response (three parameters)” model was compared to the fit of the “log(inhibitor) vs. response - Variable slope (four parameters)” model and the IC50 data of the preferred model was used.

## COCCn1c(CCNCCc2nc(C(=O)NCc3ncccc3F)co2)nc2cc3c(cc21)OCO3 [Example 69, N-((3-fluoropyridin-2-yl)methyl)-2-(2-((2-(5-(2-methoxyethyl)-5H-[1,3]dioxolo[4′,5′:4,5]benzo[1,2-d]imidazol-6-yl)ethyl)amino)ethyl)oxazole-4-carboxamide]
  IC50: 3 nM

## COCCn1c(CCNCCc2nc(C(=O)NCc3ncccc3OC)co2)nc2cc3c(cc21)OCO3 [Example 70, 2-(2-((2-(5-(2-methoxyethyl)-5H-[1,3]dioxolo[4′,5′:4,5]benzo[1,2-d]imidazol-6-yl)ethyl)amino)ethyl)-N-((3-methoxypyridin-2-yl)methyl)oxazole-4-carboxamide]
  IC50: 3.9 nM

## O=C(NCc1ncccc1F)c1coc(CCNCCc2nc3cc4c(cc3n2CC(F)F)OCCO4)n1 [Example 71, 2-(2-((2-(1-(2,2-difluoroethyl)-6,7-dihydro-1 H-[1,4]dioxino[2′,3′:4,5]benzo[1,2-d]imidazol-2-yl)ethyl)amino)ethyl)-N-((3-fluoropyridin-2-yl)methyl)oxazole-4-carboxamide]
  IC50: 7 nM

## COc1cccc(-n2c(CCNCCc3nc(C(=O)NCc4ncccc4F)co3)nc3cc(OC)c(OC)cc32)c1 [Example 72, 2-(2-((2-(5,6-dimethoxy-1-(3-methoxyphenyl)-1H-benzo[d]imidazol-2-yl)ethyl)amino)ethyl)-N-((3-fluoropyridin-2-yl)methyl)oxazole-4-carboxamide]
  IC50: 35 nM

## CC(C)OCCn1c(CCNCCc2nc(C(=O)NCc3ncccc3F)co2)nc2cc3c(cc21)OCCO3 [Example 73, N-((3-fluoropyridin-2-yl)methyl)-2-(2-((2-(1-(2-isopropoxyethyl)-6,7-dihydro-1 H-[1,4]dioxino[2′,3′:4,5]benzo[1,2-d]imidazol-2-yl)ethyl)amino)ethyl)oxazole-4-carboxamide]
  IC50: 2.6 nM

## O=C(NCc1ncccc1F)c1coc(CCNCCc2nc3cc4c(cc3n2CCN2CCCCC2)OCCO4)n1 [Example 74, N-((3-fluoropyridin-2-yl)methyl)-2-(2-((2-(1-(2-(piperidin-1-yl)ethyl)-6,7-dihydro-1H-[1,4]dioxino[2′,3′:4,5]benzo[1,2-d]imidazol-2-yl)ethyl)amino)ethyl)oxazole-4-carboxamide]
  IC50: 4.9 nM

## COc1cccc(-n2c(CCNCCc3nc(C(=O)NCc4ncccc4F)co3)nc3cc4c(cc32)OCO4)c1 [Example 75, N-((3-fluoropyridin-2-yl)methyl)-2-(2-((2-(5-(3-methoxyphenyl)-5H-[1,3]dioxolo[4′,5′:4,5]benzo[1,2-d]imidazol-6-yl)ethyl)amino)ethyl)oxazole-4-carboxamide]
  IC50: 1.3 nM

## COc1cccnc1CNC(=O)c1coc(CCNCCc2nc3cc4c(cc3n2CCN(C)C)OCCO4)n1 [Example 76, 2-(2-((2-(1-(2-(dimethylamino)ethyl)-6,7-dihydro-1 H-[1,4]dioxino[2′,3′:4,5]benzo[1,2-d]imidazol-2-yl)ethyl)amino)ethyl)-N-((3-methoxypyridin-2-yl)methyl)oxazole-4-carboxamide]
  IC50: 13 nM

## CN(C)CCn1c(CCNCCc2nc(C(=O)NCc3ncccc3F)co2)nc2cc3c(cc21)OCCO3 [Example 77, 2-(2-((2-(1-(2-(dimethylamino)ethyl)-6,7-dihydro-1 H-[1,4]dioxino[2′,3′:4,5]benzo[1,2-d]imidazol-2-yl)ethyl)amino)ethyl)-N-((3-fluoropyridin-2-yl)methyl)oxazole-4-carboxamide]
  IC50: 5.1 nM

## O=C(NCc1ncccc1F)c1coc(CCNCCc2nc3cc4c(cc3n2CCN2CCOCC2)OCCO4)n1 [Example 81, N-((3-fluoropyridin-2-yl)methyl)-2-(2-((2-(1-(2-morpholinoethyl)-6,7-dihydro-1 H-[1,4]dioxino[2′,3′:4,5]benzo[1,2-d]imidazol-2-yl)ethyl)amino)ethyl)oxazole-4-carboxamide]
  IC50: 4 nM

## O=C(NCc1ncccc1F)c1coc(CCNCCc2nc3cc4c(cc3n2-c2ccccc2)OCO4)n1 [Example 82, N-((3-fluoropyridin-2-yl)methyl)-2-(2-((2-(5-phenyl-5H-[1,3]dioxolo[4′,5′:4,5]benzo[1,2-d]imidazol-6-yl)ethyl)amino)ethyl)oxazole-4-carboxamide]
  IC50: 2 nM

## O=C(NCc1ncccc1F)c1coc(CCNCCc2nc3cc4c(cc3n2-c2ccccc2)OCCO4)n1 [Example 83, N-((3-fluoropyridin-2-yl)methyl)-2-(2-((2-(1-phenyl-6,7-dihydro-1 H-[1,4]dioxino[2′,3′:4,5]benzo[1,2-d]imidazol-2-yl)ethyl)amino)ethyl)oxazole-4-carboxamide]
  IC50: 1.9 nM

## CN1CCN(CCn2c(CCNCCc3nc(C(=O)NCc4ncccc4F)co3)nc3cc4c(cc32)OCCO4)CC1 [Example 84, N-((3-fluoropyridin-2-yl)methyl)-2-(2-((2-(1-(2-(4-methylpiperazin-1-yl)ethyl)-6,7-dihydro-1H-[1,4]dioxino[2′,3′:4,5]benzo[1,2-d]imidazol-2-yl)ethyl)amino)ethyl)oxazole-4-carboxamide]
  IC50: 150 nM

## O=C(NCc1ncccc1F)c1coc(CCNCCc2nc3cc(C#Cc4ccccn4)ccc3n2-c2ccccc2)n1 [Example 85, N-((3-fluoropyridin-2-yl)methyl)-2-(2-((2-(1-phenyl-5-(pyridin-2-ylethynyl)-1H-benzo[d]imidazol-2-yl)ethyl)amino)ethyl)oxazole-4-carboxamide]
  IC50: 7.8 nM

## COCCn1c(CCNCCc2nc(C(=O)NCc3ncccc3F)co2)nc2cc(C#Cc3ccccn3)ccc21 [Example 86, N-((3-fluoropyridin-2-yl)methyl)-2-(2-((2-(1-(2-methoxyethyl)-5-(pyridin-2-ylethynyl)-1 H-benzo[d]imidazol-2-yl)ethyl)amino)ethyl)oxazole-4-carboxamide]
  IC50: 4.1 nM

## CCCCn1c(CCNCCc2nc(C(=O)NCc3ncccc3F)co2)nc2cc(OC)c(OC)cc21 [Example 87, 2-(2-((2-(1-butyl-5,6-dimethoxy-1 H-benzo[d]imidazol-2-yl)ethyl)amino)ethyl)-N-((3-fluoropyridin-2-yl)methyl)oxazole-4-carboxamide]
  IC50: 17 nM

## O=C(NCc1ncccc1F)c1coc(CCNCCc2nc3cc4c(cc3n2CCOC2CCCCC2)OCCO4)n1 [Example 88, 2-(2-((2-(1-(2-(cyclohexyloxy)ethyl)-6,7-dihydro-1H-[1,4]dioxino[2′,3′:4,5]benzo[1,2-d]imidazol-2-yl)ethyl)amino)ethyl)-N-((3-fluoropyridin-2-yl)methyl)oxazole-4-carboxamide]
  IC50: 0.9 nM

## O=C(NCc1ncccc1F)c1coc(CCNCCc2nc3cc(C#Cc4ccccn4)ccc3n2CC2CC2)n1 [Example 89, 2-(2-((2-(1-(cyclopropylmethyl)-5-(pyridin-2-ylethynyl)-1 H-benzo[d]imidazol-2-yl)ethyl)amino)ethyl)-N-((3-fluoropyridin-2-yl)methyl)oxazole-4-carboxamide]
  IC50: 4 nM

## COc1ccc(-n2c(CCNCCc3nc(C(=O)NCc4ncccc4F)co3)nc3cc(OC)c(OC)cc32)cc1OC [Example 90, 2-(2-((2-(1-(3,4-dimethoxyphenyl)-5,6-dimethoxy-1 H-benzo[d]imidazol-2-yl)ethyl)amino)ethyl)-N-((3-fluoropyridin-2-yl)methyl)oxazole-4-carboxamide]
  IC50: 39 nM

## COc1cccnc1CNC(=O)c1coc(CCNCCc2nc3cc4c(cc3n2CCOC2CCCCC2)OCCO4)n1 [Example 91, 2-(2-((2-(1-(2-(cyclohexyloxy)ethyl)-6,7-dihydro-1H-[1,4]dioxino[2′,3′:4,5]benzo[1,2-d]imidazol-2-yl)ethyl)amino)ethyl)-N-((3-methoxypyridin-2-yl)methyl)oxazole-4-carboxamide]
  IC50: 2 nM

## COc1cccc(-n2c(CCNCCc3nc(C(=O)NCc4ncccc4F)co3)nc3cc4c(cc32)OCCO4)c1 [Example 92, N-((3-fluoropyridin-2-yl)methyl)-2-(2-((2-(1-(3-methoxyphenyl)-6,7-dihydro-1 H-[1,4]dioxino[2′,3′:4,5]benzo[1,2-d]imidazol-2-yl)ethyl)amino)ethyl)oxazole-4-carboxamide]
  IC50: 2 nM
